{"source": "patent US8273880B2", "about": "“Pyrazole compounds with inhibitory activity against ROS kinase” (Korea Institute of Science and Technology, priority 2009, dated 2012)", "experiment_in_all_cases": "HotSpot kinase screening over 45 different kinases, single dose 10 μM", "type_in_all_cases": "biochemical", "details_in_all_cases": "single dose concentration of 10 μM, 10 μM ATP", "key": {"RocK1": {"target": "T1, RocK1 (Homo sapiens, UniProt Q13464)", "T1 construct": "purchased Reaction Biology Corporation", "procedure": "(§1) Kinase screening was performed using a “HotSpot” assay platform commercially available from Reaction Biology Corporation. For this kinase screening, reaction buffers were based on 20 mM Hepes (pH 7.5), 10 mM MgCl2, 1 mM EGTA, 0.02% Brij35, 0.02 mg/mL BSA, 0.1 mM Na3VO4, 2 mM DTT, and 1% DMSO, with supplementary factors necessary for respective kinase reactions added thereto. In each enzyme reaction, […] of each kinase was used together with a fresh reaction buffer and appropriate supplementary factors. A solution of each compound in DMSO was added in a suitable concentration to the reaction buffer. Kinase reaction started with the introduction of […] (specific activity […]) and continued for 2 hours at room temperature.\n(§2) 1) Screening of Compounds Over 45 Different Kinases\n(§3) Each compound was tested twice at a single dose concentration of 10 μM. […] The reaction was performed with 10 μM ATP."}, "DAPK1": {"target": "T2, DAPK1 (Homo sapiens, UniProt P53355)", "T2 construct": "purchased Reaction Biology Corporation", "procedure": "as §1, §2, §3"}, "PLK1": {"target": "T3, PLK1 (Homo sapiens, UniProt P53350)", "T3 construct": "purchased Reaction Biology Corporation", "procedure": "as §1, §2, §3"}, "MEK1": {"target": "T4, MEK1 (Homo sapiens, UniProt Q02750)", "T4 construct": "purchased Reaction Biology Corporation", "procedure": "as §1, §2, §3"}, "MST4": {"target": "T5, MST4 (Homo sapiens, UniProt Q9P289)", "T5 construct": "purchased Reaction Biology Corporation", "procedure": "as §1, §2, §3"}, "RET": {"target": "T6, RET (Homo sapiens, UniProt P07949)", "T6 construct": "purchased Reaction Biology Corporation", "T6 sequence (P07949 29-1114)": "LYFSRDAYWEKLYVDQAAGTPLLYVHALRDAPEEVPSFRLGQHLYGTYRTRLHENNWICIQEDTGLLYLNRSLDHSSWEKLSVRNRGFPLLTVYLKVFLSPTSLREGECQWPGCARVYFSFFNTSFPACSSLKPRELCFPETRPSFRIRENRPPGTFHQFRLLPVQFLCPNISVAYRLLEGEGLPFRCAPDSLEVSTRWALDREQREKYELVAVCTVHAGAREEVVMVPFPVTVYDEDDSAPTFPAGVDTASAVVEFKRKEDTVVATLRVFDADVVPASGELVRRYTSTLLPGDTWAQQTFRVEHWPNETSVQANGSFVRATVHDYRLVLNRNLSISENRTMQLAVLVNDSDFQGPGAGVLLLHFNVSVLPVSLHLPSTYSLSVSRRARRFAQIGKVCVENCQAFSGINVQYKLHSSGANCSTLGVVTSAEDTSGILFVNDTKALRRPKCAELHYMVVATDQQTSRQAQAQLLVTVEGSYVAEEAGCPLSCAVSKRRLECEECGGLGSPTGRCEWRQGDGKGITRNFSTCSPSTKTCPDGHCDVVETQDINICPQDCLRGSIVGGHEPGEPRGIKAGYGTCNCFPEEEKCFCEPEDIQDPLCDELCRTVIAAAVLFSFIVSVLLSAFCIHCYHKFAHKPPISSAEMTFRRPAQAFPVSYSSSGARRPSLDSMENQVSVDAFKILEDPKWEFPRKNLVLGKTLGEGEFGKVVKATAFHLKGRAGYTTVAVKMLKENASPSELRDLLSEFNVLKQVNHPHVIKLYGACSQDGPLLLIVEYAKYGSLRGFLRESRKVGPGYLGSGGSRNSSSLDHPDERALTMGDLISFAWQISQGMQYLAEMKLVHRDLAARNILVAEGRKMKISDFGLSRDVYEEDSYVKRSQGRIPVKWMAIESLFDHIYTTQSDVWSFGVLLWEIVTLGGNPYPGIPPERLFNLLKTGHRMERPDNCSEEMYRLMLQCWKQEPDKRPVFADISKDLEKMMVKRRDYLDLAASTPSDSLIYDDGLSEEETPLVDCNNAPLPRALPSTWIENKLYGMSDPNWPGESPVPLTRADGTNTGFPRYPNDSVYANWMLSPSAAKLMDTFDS", "procedure": "as §1, §2, §3"}, "ABL1": {"target": "T7, ABL1 (Homo sapiens, UniProt P00519)", "T7 construct": "purchased Reaction Biology Corporation", "procedure": "as §1, §2, §3"}, "AKT1 (dPH, S473D)": {"target": "T8, AKT1 (dPH, S473D) (Homo sapiens, UniProt P31749, S473D)", "T8 construct": "AKT1 (dPH, S473D); purchased Reaction Biology Corporation", "T8 sequence (P31749 118-480 S473D limits assumed)": "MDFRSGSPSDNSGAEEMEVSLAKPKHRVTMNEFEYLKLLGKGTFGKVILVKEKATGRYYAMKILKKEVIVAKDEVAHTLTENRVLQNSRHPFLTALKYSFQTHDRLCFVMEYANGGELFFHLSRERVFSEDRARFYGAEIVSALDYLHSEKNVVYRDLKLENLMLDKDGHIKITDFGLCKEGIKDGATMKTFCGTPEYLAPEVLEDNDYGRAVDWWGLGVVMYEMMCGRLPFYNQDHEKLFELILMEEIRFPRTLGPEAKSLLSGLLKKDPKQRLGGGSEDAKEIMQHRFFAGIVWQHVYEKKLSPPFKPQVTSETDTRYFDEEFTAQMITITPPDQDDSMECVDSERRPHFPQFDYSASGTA", "procedure": "as §1, §2, §3"}, "JAK1": {"target": "T9, JAK1 (Homo sapiens, UniProt P23458)", "T9 construct": "purchased Reaction Biology Corporation", "procedure": "as §1, §2, §3"}, "P38a/MAPK14": {"target": "T10, P38a/MAPK14 (Homo sapiens, UniProt Q16539)", "T10 construct": "purchased Reaction Biology Corporation", "procedure": "as §1, §2, §3"}, "SYK": {"target": "T11, SYK (Homo sapiens, UniProt P43405)", "T11 construct": "purchased Reaction Biology Corporation", "procedure": "as §1, §2, §3"}, "IKKa/CHUK": {"target": "T12, IKKa/CHUK (Homo sapiens, UniProt O15111)", "T12 construct": "purchased Reaction Biology Corporation", "procedure": "as §1, §2, §3"}, "PAK4": {"target": "T13, PAK4 (Homo sapiens, UniProt O96013)", "T13 construct": "purchased Reaction Biology Corporation", "procedure": "as §1, §2, §3"}, "c-Src": {"target": "T14, c-Src (Homo sapiens, UniProt P12931)", "T14 construct": "purchased Reaction Biology Corporation", "procedure": "as §1, §2, §3"}, "FGFR1": {"target": "T15, FGFR1 (Homo sapiens, UniProt P11362)", "T15 construct": "purchased Reaction Biology Corporation", "T15 sequence (P11362 22-822)": "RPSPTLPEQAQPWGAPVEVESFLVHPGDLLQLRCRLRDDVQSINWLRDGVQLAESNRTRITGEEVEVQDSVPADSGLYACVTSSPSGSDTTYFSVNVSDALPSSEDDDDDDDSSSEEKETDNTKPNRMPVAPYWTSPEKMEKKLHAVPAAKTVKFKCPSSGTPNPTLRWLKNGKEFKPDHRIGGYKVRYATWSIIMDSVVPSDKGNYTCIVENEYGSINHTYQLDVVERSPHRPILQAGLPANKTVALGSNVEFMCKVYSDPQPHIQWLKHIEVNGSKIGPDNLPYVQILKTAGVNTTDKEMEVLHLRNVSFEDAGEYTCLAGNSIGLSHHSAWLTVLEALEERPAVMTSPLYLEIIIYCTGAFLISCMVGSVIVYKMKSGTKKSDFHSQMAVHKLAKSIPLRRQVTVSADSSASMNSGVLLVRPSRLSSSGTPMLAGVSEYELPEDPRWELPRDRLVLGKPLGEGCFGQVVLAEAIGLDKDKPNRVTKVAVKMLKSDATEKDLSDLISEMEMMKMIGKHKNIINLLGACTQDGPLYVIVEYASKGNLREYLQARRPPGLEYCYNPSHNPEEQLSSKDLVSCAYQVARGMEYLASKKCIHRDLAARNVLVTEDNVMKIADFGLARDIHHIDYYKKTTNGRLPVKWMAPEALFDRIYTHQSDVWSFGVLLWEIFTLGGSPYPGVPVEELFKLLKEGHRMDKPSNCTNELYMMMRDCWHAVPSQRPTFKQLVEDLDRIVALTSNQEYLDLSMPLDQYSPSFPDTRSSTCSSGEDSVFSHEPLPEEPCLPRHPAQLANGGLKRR", "procedure": "as §1, §2, §3"}, "MUSK": {"target": "T16, MUSK (Homo sapiens, UniProt O15146)", "T16 construct": "purchased Reaction Biology Corporation", "T16 sequence (O15146 24-869)": "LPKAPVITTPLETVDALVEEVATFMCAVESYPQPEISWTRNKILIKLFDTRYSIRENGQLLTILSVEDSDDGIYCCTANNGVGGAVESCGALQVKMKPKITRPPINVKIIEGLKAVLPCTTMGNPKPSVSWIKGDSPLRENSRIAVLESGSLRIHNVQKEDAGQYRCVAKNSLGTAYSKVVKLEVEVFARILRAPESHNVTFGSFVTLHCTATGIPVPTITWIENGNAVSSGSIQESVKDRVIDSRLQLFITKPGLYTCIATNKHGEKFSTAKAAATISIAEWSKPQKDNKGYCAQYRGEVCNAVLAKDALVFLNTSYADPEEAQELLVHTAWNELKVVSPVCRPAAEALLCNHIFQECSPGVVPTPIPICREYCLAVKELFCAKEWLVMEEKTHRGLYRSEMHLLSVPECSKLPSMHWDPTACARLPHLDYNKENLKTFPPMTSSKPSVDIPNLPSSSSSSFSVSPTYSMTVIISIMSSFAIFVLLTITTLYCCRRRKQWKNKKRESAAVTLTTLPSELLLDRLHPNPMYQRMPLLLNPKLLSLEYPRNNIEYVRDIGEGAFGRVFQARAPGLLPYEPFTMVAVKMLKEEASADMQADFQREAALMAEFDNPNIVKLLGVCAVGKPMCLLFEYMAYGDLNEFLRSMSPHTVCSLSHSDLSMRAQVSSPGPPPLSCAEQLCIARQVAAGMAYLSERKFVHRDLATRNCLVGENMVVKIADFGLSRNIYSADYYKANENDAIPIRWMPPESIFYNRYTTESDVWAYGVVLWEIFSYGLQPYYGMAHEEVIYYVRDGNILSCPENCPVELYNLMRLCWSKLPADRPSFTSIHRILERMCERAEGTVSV", "procedure": "as §1, §2, §3"}, "HIPK1": {"target": "T17, HIPK1 (Homo sapiens, UniProt Q86Z02)", "T17 construct": "purchased Reaction Biology Corporation", "procedure": "as §1, §2, §3"}, "FYN": {"target": "T18, FYN (Homo sapiens, UniProt P06241)", "T18 construct": "purchased Reaction Biology Corporation", "procedure": "as §1, §2, §3"}, "IR": {"target": "T19, IR (Homo sapiens, UniProt P06213)", "T19 construct": "purchased Reaction Biology Corporation", "procedure": "as §1, §2, §3"}, "p70S6K": {"target": "T20, p70S6K (Homo sapiens, UniProt P23443)", "T20 construct": "purchased Reaction Biology Corporation", "procedure": "as §1, §2, §3"}, "EPHA1": {"target": "T21, EPHA1 (Homo sapiens, UniProt P21709)", "T21 construct": "purchased Reaction Biology Corporation", "T21 sequence (P21709 26-976)": "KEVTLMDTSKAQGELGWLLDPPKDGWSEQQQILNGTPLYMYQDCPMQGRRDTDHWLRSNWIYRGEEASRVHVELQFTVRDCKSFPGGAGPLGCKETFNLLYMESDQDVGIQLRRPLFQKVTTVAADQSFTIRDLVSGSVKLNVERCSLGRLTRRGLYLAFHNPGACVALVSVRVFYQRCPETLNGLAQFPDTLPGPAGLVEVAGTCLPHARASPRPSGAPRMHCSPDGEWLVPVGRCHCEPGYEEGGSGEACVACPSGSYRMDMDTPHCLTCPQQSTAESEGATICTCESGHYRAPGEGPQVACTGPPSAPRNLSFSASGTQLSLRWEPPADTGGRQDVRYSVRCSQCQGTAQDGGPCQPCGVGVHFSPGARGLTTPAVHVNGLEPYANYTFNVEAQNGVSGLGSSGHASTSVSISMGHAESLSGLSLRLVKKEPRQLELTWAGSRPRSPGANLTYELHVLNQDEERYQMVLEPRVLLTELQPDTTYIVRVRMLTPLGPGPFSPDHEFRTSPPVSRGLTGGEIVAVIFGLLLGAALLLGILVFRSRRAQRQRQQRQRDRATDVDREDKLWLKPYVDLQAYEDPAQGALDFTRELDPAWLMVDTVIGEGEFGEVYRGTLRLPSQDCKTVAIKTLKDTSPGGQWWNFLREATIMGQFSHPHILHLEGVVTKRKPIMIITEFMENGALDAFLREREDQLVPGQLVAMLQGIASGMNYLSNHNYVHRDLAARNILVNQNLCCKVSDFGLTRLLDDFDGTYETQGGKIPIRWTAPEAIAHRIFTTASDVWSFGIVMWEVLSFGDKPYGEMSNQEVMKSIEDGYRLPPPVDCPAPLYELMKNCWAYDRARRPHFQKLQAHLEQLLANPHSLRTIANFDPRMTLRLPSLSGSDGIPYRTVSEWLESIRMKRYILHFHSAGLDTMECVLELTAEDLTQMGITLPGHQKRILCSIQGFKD", "procedure": "as §1, §2, §3"}, "LCK": {"target": "T22, LCK (Homo sapiens, UniProt P06239)", "T22 construct": "purchased Reaction Biology Corporation", "procedure": "as §1, §2, §3"}, "c-Kit": {"target": "T23, c-Kit (Homo sapiens, UniProt P10721)", "T23 construct": "purchased Reaction Biology Corporation", "T23 sequence (P10721 26-976)": "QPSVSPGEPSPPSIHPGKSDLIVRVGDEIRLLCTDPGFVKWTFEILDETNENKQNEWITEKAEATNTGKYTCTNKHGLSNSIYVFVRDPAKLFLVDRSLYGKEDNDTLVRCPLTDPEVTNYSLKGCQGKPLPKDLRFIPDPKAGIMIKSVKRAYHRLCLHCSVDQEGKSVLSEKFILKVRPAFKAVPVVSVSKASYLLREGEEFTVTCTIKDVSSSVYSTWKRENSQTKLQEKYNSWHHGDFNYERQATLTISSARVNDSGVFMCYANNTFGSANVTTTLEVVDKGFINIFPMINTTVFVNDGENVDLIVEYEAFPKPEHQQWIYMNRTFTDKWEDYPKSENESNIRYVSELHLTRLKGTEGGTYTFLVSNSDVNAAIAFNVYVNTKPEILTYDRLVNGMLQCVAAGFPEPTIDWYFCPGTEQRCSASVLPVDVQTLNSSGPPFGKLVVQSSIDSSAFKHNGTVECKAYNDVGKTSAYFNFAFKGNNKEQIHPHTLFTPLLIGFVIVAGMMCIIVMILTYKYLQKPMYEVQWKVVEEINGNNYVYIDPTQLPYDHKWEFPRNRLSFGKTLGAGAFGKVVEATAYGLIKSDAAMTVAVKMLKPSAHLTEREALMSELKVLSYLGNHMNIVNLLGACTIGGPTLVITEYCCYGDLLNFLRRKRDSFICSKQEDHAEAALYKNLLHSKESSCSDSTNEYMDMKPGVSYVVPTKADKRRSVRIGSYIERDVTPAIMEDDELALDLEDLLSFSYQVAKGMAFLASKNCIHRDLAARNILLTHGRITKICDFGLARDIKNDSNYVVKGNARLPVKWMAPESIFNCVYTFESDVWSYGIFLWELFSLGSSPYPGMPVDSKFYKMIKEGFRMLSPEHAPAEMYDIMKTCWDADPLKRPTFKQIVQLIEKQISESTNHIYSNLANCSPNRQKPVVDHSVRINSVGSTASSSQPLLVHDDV", "procedure": "as §1, §2, §3"}, "[1]": {"details": "compared to enzyme activity in DMSO control"}}, "data": [{"smiles": "Cc1cc(O)cc(-c2nn(CC#N)cc2-c2cc(NC[C@H](C)O)nc(-c3cccnc3)n2)c1", "note": "[Example 10, [4-[6-(2(S)-hydroxypropylamino)-2-pyridin-3-yl-pyrimidin-4-yl]-3-(3-hydroxy-5-methylphenyl)-pyrazol-1-yl]acetonitrile]", "values": [{"measurement": "inhibition at 10 µM", "setting": "RocK1", "result": 11.7, "unit": "%"}, {"measurement": "activity at 10 µM", "setting": "RocK1; [1]", "result": 88.3, "unit": "%"}, {"measurement": "inhibition at 10 µM", "setting": "DAPK1", "result": -1.17, "unit": "%"}, {"measurement": "activity at 10 µM", "setting": "DAPK1; [1]", "result": 101, "unit": "%"}, {"measurement": "inhibition at 10 µM", "setting": "PLK1", "result": 5.85, "unit": "%"}, {"measurement": "activity at 10 µM", "setting": "PLK1; [1]", "result": 94.2, "unit": "%"}, {"measurement": "inhibition at 10 µM", "setting": "MEK1", "result": -6.97, "unit": "%"}, {"measurement": "activity at 10 µM", "setting": "MEK1; [1]", "result": 107, "unit": "%"}, {"measurement": "inhibition at 10 µM", "setting": "MST4", "result": -1.54, "unit": "%"}, {"measurement": "activity at 10 µM", "setting": "MST4; [1]", "result": 102, "unit": "%"}, {"measurement": "inhibition at 10 µM", "setting": "RET", "result": 6.65, "unit": "%"}, {"measurement": "activity at 10 µM", "setting": "RET; [1]", "result": 93.3, "unit": "%"}, {"measurement": "inhibition at 10 µM", "setting": "ABL1", "result": 20.4, "unit": "%"}, {"measurement": "activity at 10 µM", "setting": "ABL1; [1]", "result": 79.6, "unit": "%"}, {"measurement": "inhibition at 10 µM", "setting": "AKT1 (dPH, S473D)", "result": -2.97, "unit": "%"}, {"measurement": "activity at 10 µM", "setting": "AKT1 (dPH, S473D); [1]", "result": 103, "unit": "%"}, {"measurement": "inhibition at 10 µM", "setting": "JAK1", "result": 9.15, "unit": "%"}, {"measurement": "activity at 10 µM", "setting": "JAK1; [1]", "result": 90.8, "unit": "%"}, {"measurement": "inhibition at 10 µM", "setting": "P38a/MAPK14", "result": 5.27, "unit": "%"}, {"measurement": "activity at 10 µM", "setting": "P38a/MAPK14; [1]", "result": 94.7, "unit": "%"}, {"measurement": "inhibition at 10 µM", "setting": "SYK", "result": 8.23, "unit": "%"}, {"measurement": "activity at 10 µM", "setting": "SYK; [1]", "result": 91.8, "unit": "%"}, {"measurement": "inhibition at 10 µM", "setting": "IKKa/CHUK", "result": 1.37, "unit": "%"}, {"measurement": "activity at 10 µM", "setting": "IKKa/CHUK; [1]", "result": 98.6, "unit": "%"}, {"measurement": "inhibition at 10 µM", "setting": "PAK4", "result": 1.37, "unit": "%"}, {"measurement": "activity at 10 µM", "setting": "PAK4; [1]", "result": 98.6, "unit": "%"}, {"measurement": "inhibition at 10 µM", "setting": "c-Src", "result": 16.2, "unit": "%"}, {"measurement": "activity at 10 µM", "setting": "c-Src; [1]", "result": 83.8, "unit": "%"}, {"measurement": "inhibition at 10 µM", "setting": "FGFR1", "result": -8.05, "unit": "%"}, {"measurement": "activity at 10 µM", "setting": "FGFR1; [1]", "result": 108, "unit": "%"}, {"measurement": "inhibition at 10 µM", "setting": "MUSK", "result": -0.42, "unit": "%"}, {"measurement": "activity at 10 µM", "setting": "MUSK; [1]", "result": 100, "unit": "%"}, {"measurement": "inhibition at 10 µM", "setting": "HIPK1", "result": -3.43, "unit": "%"}, {"measurement": "activity at 10 µM", "setting": "HIPK1; [1]", "result": 103, "unit": "%"}, {"measurement": "inhibition at 10 µM", "setting": "FYN", "result": -7.86, "unit": "%"}, {"measurement": "activity at 10 µM", "setting": "FYN; [1]", "result": 108, "unit": "%"}, {"measurement": "inhibition at 10 µM", "setting": "IR", "result": 7.01, "unit": "%"}, {"measurement": "activity at 10 µM", "setting": "IR; [1]", "result": 93, "unit": "%"}, {"measurement": "inhibition at 10 µM", "setting": "p70S6K", "result": 5.79, "unit": "%"}, {"measurement": "activity at 10 µM", "setting": "p70S6K; [1]", "result": 94.2, "unit": "%"}, {"measurement": "inhibition at 10 µM", "setting": "EPHA1", "result": 23.3, "unit": "%"}, {"measurement": "activity at 10 µM", "setting": "EPHA1; [1]", "result": 76.7, "unit": "%"}, {"measurement": "inhibition at 10 µM", "setting": "LCK", "result": 10.3, "unit": "%"}, {"measurement": "activity at 10 µM", "setting": "LCK; [1]", "result": 89.7, "unit": "%"}, {"measurement": "inhibition at 10 µM", "setting": "c-Kit", "result": 2.85, "unit": "%"}, {"measurement": "activity at 10 µM", "setting": "c-Kit; [1]", "result": 97.2, "unit": "%"}]}]}
